# Key:
# [1] = tested on: eyes of a patient with an ocular condition; conditions: brimonidine 0.01-[…] (left eye) compared with tetrahydrozoline 0.05%, oxymetazoline […], naphazoline […] (right eye); baseline redness 4/4
# Text: In an average clinical situation, baseline redness is at 1-1.5/4.
# red eye condition = test: Red eye study, brimonidine vs VISINE Original, cumulative red scores (Example 4); format: in vivo, human; conditions: three week scores, brimonidine at […]
# Protocol: The patients were assigned “cumulative red scores” , prior to each administration (as baseline) and then 10 min after each dose, by dividing the bulbar conjunctiva into six sectors, each scored with a grade 1-3 score and the total cumulative score.
# chronic red eyes = test: Chronic red eyes, eld brimonidine vs Naphcon-A, patient satisfaction assessment (Example 5); format: in vivo, human; conditions: brimonidine at […], drops twice a day for three to five weeks, seven patients
# Protocol: The treatment was through drops twice a day for three to five weeks. At the end, patient satisfaction assessment was conducted.
# rebound hyperemia = test: Reversal of pre-induced rebound hyperemia (FIGS. 5A-C); format: in vivo, human; conditions: right eye, brimonidine at […] after VISINE Original
# Text: FIG. 5A is a baseline visual appearance of two eyes of a patient with an ocular condition.
# [2] = tested on: vasoconstriction, rebound hyperemia, intraocular pressure, corneal endothelial cell pump; conditions: FIG. 2
# [3] = tested on: postoperative hyperemia and conjunctival hemorrhage; test: Lasik prophylaxis (Example 2); conditions: brimonidine 0.02%
smiles,measurement,setting,value
"Brc1c(N=C2NCCN2)ccc2nccnc12.O=C(O)C(O)C(O)C(=O)O [brimonidine, 5-bromo-6-(2-imidazolidinylideneamino)quinoxaline L-tartrate]",scleral whitening brightening effects,[1],significant scleral whitening brightening effects
same,average redness count after administration (went down to),red eye condition,1.6
same,patient-reported redness,chronic red eyes,All patients reported reduced redness
same,reversal of induced rebound hyperemia,rebound hyperemia,reversing the VISINE Original® induced rebound hyperemia
same,concentration at which intraocular pressure reduction and corneal endothelial cell pump inhibition are just at their maximum,[2],about 0.09%
same,concentration below which intraocular pressure reduction and endothelial cell pump inhibition drop off exponentially,[2]; vasoconstrictive effect remains largely unchanged,below 0.08%
same,cosmetic appearance from day 1 vs. no vasoconstrictor and vs. Naphcon-A,[3],much improved
same,eye appearance after Lasik,[3]; group expanded to over 500 eyes,white quiet eye is noted in most patients
